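In this assay, cells in 96-well plates receive the compound at five concentrations for 48 hours. Endpoints are linearly interpolated between the surrounding concentrations. GI50: concentration for 50% inhibition of growth.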 Activity calls are given as the source filed them. No stated cut-off is given here; in the data, active = GI50 up to about 1.1 µM and inactive = higher.
Key:
Test in all cases: NCI tumour cell line growth inhibition, 48 h
SF-539 = system: SF-539
SK-MEL-28 = system: SK-MEL-28
SF-295 = system: SF-295
ACHN = system: ACHN
RPMI-8226 = system: RPMI-8226
M14 = system: M14
MCF7 = system: MCF7
TK-10 = system: TK-10
HL-60 = system: HL-60
OVCAR-5 = system: OVCAR-5
HCT-116 = system: HCT-116
786-0 = system: 786-0
HOP-92 = system: HOP-92
KM12 = system: KM12
SW-620 = system: SW-620
HCT-15 = system: HCT-15
NCI-H226 = system: NCI-H226
SF-268 = system: SF-268
UACC-62 = system: UACC-62
SK-OV-3 = system: SK-OV-3

Structure (SMILES)	GI50 (SF-539)	GI50 (SK-MEL-28)	GI50 (SF-295)	GI50 (ACHN)	GI50 (RPMI-8226)	GI50 (M14)	GI50 (MCF7)	GI50 (TK-10)	GI50 (HL-60)	GI50 (OVCAR-5)	GI50 (HCT-116)	GI50 (786-0)	GI50 (HOP-92)	GI50 (KM12)	GI50 (SW-620)	GI50 (HCT-15) [µM]	GI50 (NCI-H226)	GI50 (SF-268)	GI50 (UACC-62)	GI50 (SK-OV-3)
Cn1c(N2CCCC2)c(C=O)c(=O)n(C)c1=O	> 100 µM (inactive)	> 100 µM (inactive)	> 100 µM (inactive)	> 100 µM (inactive)	> 100 µM (inactive)	> 100 µM (inactive)	> 100 µM (inactive)	> 100 µM (inactive)	> 100 µM (inactive)	> 100 µM (inactive)	> 100 µM (inactive)	> 100 µM (inactive)	> 100 µM (inactive)	> 100 µM (inactive)	> 100 µM (inactive)	> 100	51.8 µM (inactive)	96.8 µM (inactive)	> 100 µM (inactive)	> 100 µM (inactive)
Cn1c(=O)c2c(ncn2CCCCOc2ccc3c(c2)[n+]([O-])nc(N)[n+]3[O-])n(C)c1=O	21.1 µM (inactive)	34.7 µM (inactive)	32.6 µM (inactive)		30.5 µM (inactive)	29.4 µM (inactive)	11.9 µM (inactive)	51.6 µM (inactive)	34.9 µM (inactive)		28.1 µM (inactive)	29 µM (inactive)	4.76 µM (inactive)	32.6 µM (inactive)	39.6 µM (inactive)	65.2	19.4 µM (inactive)	32.9 µM (inactive)	17.1 µM (inactive)	30.3 µM (inactive)
CCCCC(=O)OC[n+]1ccc2c(C)c3[nH]c4ccc(OC)cc4c3c(C)c2c1	0.367 µM (active)	1.32 µM (inactive)	0.356 µM (active)	0.0938 µM (active)	0.0675 µM (active)	1.04 µM (active)	0.168 µM (active)	2.64 µM (inactive)	0.422 µM (active)	1.67 µM (inactive)	0.0718 µM (active)	0.118 µM (active)	1.23 µM (inactive)	0.412 µM (active)	0.14 µM (active)	0.166	0.562 µM (active)	0.344 µM (active)	0.979 µM (active)	0.656 µM (active)
CC(C)(C)C(O)CC(O)(C(F)(F)F)C(F)(F)F (stereo unspecified)	> 100 µM (inactive)	> 100 µM (inactive)	> 100 µM (inactive)	> 100 µM (inactive)	> 100 µM (inactive)	> 100 µM (inactive)	> 100 µM (inactive)	> 100 µM (inactive)	> 100 µM (inactive)	> 100 µM (inactive)	> 100 µM (inactive)	> 100 µM (inactive)	> 100 µM (inactive)	> 100 µM (inactive)	> 100 µM (inactive)	> 100	> 100 µM (inactive)	> 100 µM (inactive)	> 100 µM (inactive)	> 100 µM (inactive)
O=C(O)c1ccc(/C=N/N=C2c3ccccc3-c3ccccc32)cc1	31 µM (inactive)	62.4 µM (inactive)	12.7 µM (inactive)	48.3 µM (inactive)	63.7 µM (inactive)	67.1 µM (inactive)	33.2 µM (inactive)	66.1 µM (inactive)	32.9 µM (inactive)	50.2 µM (inactive)	> 100 µM (inactive)	> 100 µM (inactive)	40.6 µM (inactive)	35.2 µM (inactive)	36.1 µM (inactive)	57.1	22.4 µM (inactive)	23.6 µM (inactive)	61.8 µM (inactive)	74.3 µM (inactive)
Clc1cc(OCc2nn3c(Cc4ccccc4)nnc3s2)c(Cl)cc1OCc1nn2c(Cc3ccccc3)nnc2s1	42.2 µM (inactive)	> 100 µM (inactive)	31.3 µM (inactive)	59 µM (inactive)	8.89 µM (inactive)	> 100 µM (inactive)	> 100 µM (inactive)	29.9 µM (inactive)	68.1 µM (inactive)	> 100 µM (inactive)	77.1 µM (inactive)	33.7 µM (inactive)	18.8 µM (inactive)	> 100 µM (inactive)	> 100 µM (inactive)	7.05	> 100 µM (inactive)	43.8 µM (inactive)	> 100 µM (inactive)	25.8 µM (inactive)
C=C(C)[C@@H]1CC[C@]2(C(=O)O)CC[C@]3(C)[C@H](CC[C@@H]4[C@@]5(C)CC[C@H](O)C(C)(C)[C@@H]5CC[C@]43C)[C@@H]12 [BETULINIC ACID]	4.03 µM (inactive)	17.1 µM (inactive)	7.71 µM (inactive)	8.28 µM (inactive)	7.36 µM (inactive)	10.3 µM (inactive)	13.7 µM (inactive)	14.8 µM (inactive)	2.97 µM (inactive)	12.4 µM (inactive)	4.27 µM (inactive)	10.2 µM (inactive)	3.27 µM (inactive)	5.93 µM (inactive)	18.2 µM (inactive)	8.67	13.2 µM (inactive)	7.6 µM (inactive)	14.1 µM (inactive)	15.9 µM (inactive)
CNC(=O)CCCNC(=O)CCCC(=O)N(C)C	> 100 µM (inactive)	> 100 µM (inactive)	> 100 µM (inactive)	> 100 µM (inactive)	> 100 µM (inactive)	> 100 µM (inactive)	> 100 µM (inactive)	> 100 µM (inactive)	> 100 µM (inactive)	> 100 µM (inactive)	> 100 µM (inactive)	> 100 µM (inactive)	> 100 µM (inactive)	> 100 µM (inactive)	45.5 µM (inactive)	> 100	> 100 µM (inactive)	> 100 µM (inactive)	> 100 µM (inactive)	> 100 µM (inactive)
CCOC(=O)CCC(NC(=O)c1ccc(Oc2nc3c(N)cc(C(F)(F)F)cc3nc2-c2ccccc2)cc1)C(=O)OCC (stereo unspecified)	1.67 µM (inactive)	> 100 µM (inactive)	11 µM (inactive)	8.24 µM (inactive)	> 45.9 µM (inactive)	47 µM (inactive)	37.1 µM (inactive)	14.6 µM (inactive)	38.8 µM (inactive)		2.14 µM (inactive)	3.42 µM (inactive)	56.8 µM (inactive)	19.5 µM (inactive)	> 100 µM (inactive)	> 100	2.76 µM (inactive)	13.8 µM (inactive)	> 46.3 µM (inactive)	13.5 µM (inactive)
Cc1ccc(-c2ccc3c(c2)Sc2ccccc2O3)n1C	0.308 µM (active)		0.165 µM (active)	3.57 µM (inactive)	0.179 µM (active)	0.371 µM (active)	0.324 µM (active)	0.627 µM (active)	0.125 µM (active)	0.809 µM (active)	0.167 µM (active)	0.553 µM (active)	19.8 µM (inactive)	0.257 µM (active)	0.264 µM (active)	0.143	19.9 µM (inactive)	0.791 µM (active)	0.0593 µM (active)	0.536 µM (active)

From ChEMBL document CHEMBL1201862, “PubChem BioAssay data set” (2004)
